# Measurements reported in patent US8846749B2, “Anticancer-aiding compound, method for preparing the same, anticancer-aiding composition containing the same and method for reducing anticancer drug resistance using the same” (Ewha University-Industry Collaboration Foundation, priority 2009, dated 2014).
# System: not given
# Test: not given
# Conditions: not given
row,Compound,melting point
1,"COc1cccc2c(=O)c3c(O)cc(OCC(O)CCl)cc3oc12 (stereo not shown) [Compound 1, 3-(3-chloro-2-hydroxypropoxy)-1-hydroxy-5-methoxy-9H-xanthen-9-one]",184 °C
2,"O=c1c2ccccc2oc2cc(OCC(O)CCl)cc(O)c12 (stereo not shown) [Compound 2, 3-(3-chloro-2-hydroxypropoxy)-1-hydroxy-9H-xanthen-9-one]",144 °C
3,"O=c1c2ccc3ccccc3c2oc2cc(OCC3CS3)cc(OCC3CS3)c12 (stereo not shown) [Compound 12, 8,10-bis(thiiran-2-ylmethoxy)-7H-benzo[c]xanthen-7-one]",202 °C
4,"O=c1c2c(O)cc(OCC3CS3)cc2oc2ccc3ccccc3c12 (stereo not shown) [Compound 14, 11-hydroxy-9-(thiiran-2-ylmethoxy)-12H-benzo[a]xanthen-12-one]",167 to 168 °C
5,"O=c1c2c(OCC3CS3)cc(OCC3CS3)cc2oc2ccc3ccccc3c12 (stereo not shown) [Compound 15, 9,11-bis(thiiran-2-ylmethoxy)-12H-benzo[a]xanthen-12-one]",225 to 226 °C

# More lines, now with the values ahead:
row,melting point,Compound
1,187 °C,"COc1cccc2c(=O)c3c(O)cc(OCC4CS4)cc3oc12 (stereo not shown) [Compound 3, 1-hydroxy-5-methoxy-3-(thiiran-2-ylmethoxy)-9H-xanthen-9-one]"
2,240 °C,"COc1cccc2c(=O)c3c(OCC4CS4)cc(OCC4CS4)cc3oc12 (stereo not shown) [Compound 5, 1,3-bis(thiiran-2-ylmethoxy)-5-methoxy-9H-xanthen-9-one]"
3,170 °C,"O=c1c2ccccc2oc2cc(OCC(O)CO)cc(O)c12 (stereo not shown) [Compound 6, 3-(2,3-dihydroxypropoxy)-1-hydroxy-9H-xanthen-9-one]"
4,189 °C,"COc1cccc2c(=O)c3c(O)cc(OCC(O)CO)cc3oc12 (stereo not shown) [Compound 7, 3-(2,3-dihydroxypropoxy)-1-hydroxy-5-methoxy-9H-xanthen-9-one]"
5,149 °C,"O=c1c2ccccc2sc2cc(OCC3CS3)cc(O)c12 (stereo not shown) [Compound 8, 1-hydroxy-3-(thiiran-2-ylmethoxy)-9H-thioxanthen-9-one]"
6,107 °C,"COc1cc(OCC(O)CCl)cc2oc3ccccc3c(=O)c12 (stereo not shown) [Compound 9, 3-(3-chloro-2-hydroxypropoxy)-1-methoxy-9H-xanthen-9-one]"
7,151 °C,"O=c1c2ccccc2sc2cc(OCC(O)CCl)cc(O)c12 (stereo not shown) [Compound 10, 3-(3-chloro-2-hydroxypropoxy)-1-hydroxy-9H-thioxanthen-9-one]"
8,134 °C,"O=c1c2ccccc2sc2cc(OCC(S)CCl)cc(O)c12 (stereo not shown) [Compound 11, 3-(3-chloro-2-mercaptopropoxy)-1-hydroxy-9H-thioxanthen-9-one]"
9,125 °C,"COc1cccc2c(=O)c3c(O)cc(OCC(S)CCl)cc3oc12 (stereo not shown) [Compound 13, 3-(3-chloro-2-mercaptopropoxy)-1-hydroxy-5-methoxy-9H-xanthen-9-one]"
10,198 to 200 °C,"O=c1c2c(OCC3CO3)cc(OCC3CO3)cc2oc2ccc3ccccc3c12 (stereo not shown) [Compound 17, 9,11-bis(oxiran-2-ylmethoxy)-12H-benzo[a]xanthen-12-one]"
11,201 to 202 °C,"O=c1c2cc3ccccc3cc2oc2cc(OCC3CO3)cc(O)c12 (stereo not shown) [Example 20, 1-hydroxy-3-(oxiran-2-ylmethoxy)-12H-benzo[b]xanthen-12-one]"

# Molecular target: P-gp (Homo sapiens, UniProt P08183)
# Sequence (P08183 whole entry): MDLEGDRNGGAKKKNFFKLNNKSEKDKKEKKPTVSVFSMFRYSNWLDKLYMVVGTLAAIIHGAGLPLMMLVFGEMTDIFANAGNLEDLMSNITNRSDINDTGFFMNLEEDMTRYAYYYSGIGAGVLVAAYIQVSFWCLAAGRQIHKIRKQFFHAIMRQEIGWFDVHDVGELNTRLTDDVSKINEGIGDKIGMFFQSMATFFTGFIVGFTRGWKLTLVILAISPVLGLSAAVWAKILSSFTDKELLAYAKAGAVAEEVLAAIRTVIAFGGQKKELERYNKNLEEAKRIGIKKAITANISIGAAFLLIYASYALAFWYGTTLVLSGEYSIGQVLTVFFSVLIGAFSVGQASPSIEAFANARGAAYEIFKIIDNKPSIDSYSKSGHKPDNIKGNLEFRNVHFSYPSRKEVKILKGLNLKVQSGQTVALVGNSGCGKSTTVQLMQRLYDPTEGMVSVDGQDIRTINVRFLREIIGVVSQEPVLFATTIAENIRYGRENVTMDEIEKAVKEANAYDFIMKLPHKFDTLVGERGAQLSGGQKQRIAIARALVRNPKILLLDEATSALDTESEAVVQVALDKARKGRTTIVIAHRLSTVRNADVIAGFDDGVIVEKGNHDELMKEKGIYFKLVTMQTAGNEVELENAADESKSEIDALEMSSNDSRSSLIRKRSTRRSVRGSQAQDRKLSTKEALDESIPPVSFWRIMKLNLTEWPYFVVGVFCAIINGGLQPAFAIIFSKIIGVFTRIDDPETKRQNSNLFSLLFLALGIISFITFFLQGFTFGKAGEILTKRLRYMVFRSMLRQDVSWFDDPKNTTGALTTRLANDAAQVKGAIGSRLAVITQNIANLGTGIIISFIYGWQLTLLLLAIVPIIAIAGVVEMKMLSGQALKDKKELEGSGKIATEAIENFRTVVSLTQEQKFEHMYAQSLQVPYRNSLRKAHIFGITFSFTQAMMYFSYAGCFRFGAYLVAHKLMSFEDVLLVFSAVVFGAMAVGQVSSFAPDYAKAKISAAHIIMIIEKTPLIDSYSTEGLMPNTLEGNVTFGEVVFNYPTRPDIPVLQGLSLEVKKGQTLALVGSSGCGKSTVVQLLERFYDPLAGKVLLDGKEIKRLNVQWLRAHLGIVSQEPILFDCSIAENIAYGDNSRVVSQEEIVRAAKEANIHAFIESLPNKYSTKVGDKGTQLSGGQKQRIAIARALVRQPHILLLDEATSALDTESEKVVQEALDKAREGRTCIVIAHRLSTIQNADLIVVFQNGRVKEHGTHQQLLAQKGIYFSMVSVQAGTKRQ
# Test: not given
# Conditions: 1 h, 100 μM
row,Compound,Cellular efflux amount of daunomycin (%)
1,"O=c1c2ccc3ccccc3c2oc2cc(OCC3CS3)cc(OCC3CS3)c12 (stereo not shown) [Compound 12, 8,10-bis(thiiran-2-ylmethoxy)-7H-benzo[c]xanthen-7-one]",40.39 ± 4.38 %
2,"O=c1c2c(O)cc(OCC3CS3)cc2oc2ccc3ccccc3c12 (stereo not shown) [Compound 14, 11-hydroxy-9-(thiiran-2-ylmethoxy)-12H-benzo[a]xanthen-12-one]",64.81 ± 20.45%
3,"O=c1c2c(OCC3CS3)cc(OCC3CS3)cc2oc2ccc3ccccc3c12 (stereo not shown) [Compound 15, 9,11-bis(thiiran-2-ylmethoxy)-12H-benzo[a]xanthen-12-one]",40.04 ± 5.33 %
4,"O=c1c2cc3ccccc3cc2oc2cc(OCC3CS3)cc(O)c12 (stereo not shown) [Compound 18, 1-hydroxy-3-(thiiran-2-ylmethoxy)-12H-benzo[b]xanthen-12-one]",44.15 ± 5.08 %
5,"O=c1c2cc3ccccc3cc2oc2cc(OCC3CS3)cc(OCC3CS3)c12 (stereo not shown) [Compound 19, 1,3-bis(thiiran-2-ylmethoxy)-12H-benzo[b]xanthen-12-one]",42.45 ± 7.23 %

# System: MCF-7/ADR cells
# Test: Effects of compounds on cytotoxicity of daunomycin (SRB staining)
# Assay type: cell-based
# Conditions: Homo sapiens, NCI/ADR-RES, daunomycin alone (DMSO control), 2-hour incubation, SRB after 3 days
# Method: The cells were cultured to confluence on the plate at 37° C. for 24 hours.
# At this time, the group to which only DMSO was added in place of the compounds in accordance with the present invention was taken as a control. […] After 3 days, cytotoxicity was examined according to an SRB staining method which is briefly described as follows. Cells were fixed with 10% TCA for one hour, washed 4 times with water, and then dried. An SRB reagent (0.4% w/v in 1% acetic acid) was added to each well and one hour later, the plate was washed 4 times with 1% acetic acid.
row,Compound,IC50
1,"COc1cccc2c1C(=O)c1c(O)c3c(c(O)c1C2=O)C[C@@](O)(C(C)=O)C[C@@H]3O[C@H]1C[C@H](N)[C@H](O)[C@H](C)O1 [DNM, Daunomycin]",25.6 µM
